# In patent US10376535B2, “Therapy for malignant disease” (UNIVERSITY OF ROCHESTER, priority 2015, dated 2019):
# Columns and labels:
# PD-L1 [1] = experiment: PD-L1 expression after MeTC7 treatment, melanoma cells; type: cell-based
# PD-L1 [2] = experiment: PD-L1 immunofluorescence after MeTC7 treatment, DAOY medulloblastoma cells; type: cell-based, human; conditions: MeTC7 125 nM, confocal microscopy
# Description: FIG. 12 is a fluorescent micrograph depicting the effects of MeTC7 (125 nM) treatment on immune checkpoint PD-L1 expression in DAOY (human) medulloblastoma cells. Treated/naïve DAOY cells were analyzed by spinning disk confocal microscopy after staining with PD-L1 primary and suitable secondary antibodies.
# Co-localization of VDR and PD-L1 was performed following the method in the Examples above. To determine the expression level of PD-L1 after MeTC7 treatment (125 nM), 10000 cells/well of SKOV-3, OVCAR-8 human ovarian carcinoma cells, IGROV-1 human ovarian carcinoma cells, and ID-8 murine ovarian cancer cells were seeded in an 8 well slide chamber (Nunc) and allowed to adhere overnight in FBS supplemented DMEM media. After 18 hours, the media was removed and the cells were treated with vehicle or MeTC7 supplemented DMEM serum free media for 4-6 hours. Cells maintained in DMEM medium were fixed with formalin solution for 15 mins, washed with PBST solution and blocked with Donkey serum 5% in PBST for 30 minutes. Cells were carefully washed and stained with PD-L1 primary antibody overnight in PBST. The cells were washed and stained with corresponding fluorescence linked secondary antibody for 1 hour. […] Casing on the chambers were removed and DAPI was applied in a mounting medium and images were recorded using an epi or confocal microscopy.
# PD-L1 [3] = experiment: PD-L1 immunofluorescence after MeTC7 treatment, human ovarian carcinoma cells (SKOV-3, OVCAR-8, IGROV-1); type: cell-based; conditions: MeTC7 125 nM, 4-6 hours
# Description: (§1) Co-localization of VDR and PD-L1 was performed following the method in the Examples above. To determine the expression level of PD-L1 after MeTC7 treatment (125 nM), 10000 cells/well of SKOV-3, OVCAR-8 human ovarian carcinoma cells, IGROV-1 human ovarian carcinoma cells, and ID-8 murine ovarian cancer cells were seeded in an 8 well slide chamber (Nunc) and allowed to adhere overnight in FBS supplemented DMEM media. After 18 hours, the media was removed and the cells were treated with vehicle or MeTC7 supplemented DMEM serum free media for 4-6 hours. Cells maintained in DMEM medium were fixed with formalin solution for 15 mins, washed with PBST solution and blocked with Donkey serum 5% in PBST for 30 minutes. Cells were carefully washed and stained with PD-L1 primary antibody overnight in PBST. The cells were washed and stained with corresponding fluorescence linked secondary antibody for 1 hour. Cells were washed repeatedly with PBST (200 μL) five times. Casing on the chambers were removed and DAPI was applied in a mounting medium and images were recorded using an epi or confocal microscopy.
# PD-L1 [4] = experiment: PD-L1 immunofluorescence after MeTC7 treatment, ID-8 murine ovarian cancer cells; type: cell-based; conditions: MeTC7 125 nM, 4-6 hours
# Description: as §1
# SKOV-3 cells = experiment: Tumor size in SKOV-3 xenograft, cisplatin-resistant murine model of ovarian cancer; type: in vivo; conditions: SKOV-3 xenograft nude mice; IP; oligos 7 mg/kg, cisplatin 10 mg/kg once a week; measured every 3 days
# Description: Four to six week-old immunodeficient nude mice were maintained at a temperature of ˜22° C. and a relative humidity of ˜55%, with a 12 hour light/dark cycle. The mice used were NU/NU; strain code 088/homozygous, obtained from Charles River Laboratories, Wilmington, Mass. The inoculation of the mice began with culturing SKOV-3 cells to 80% confluence, washing the SKOV-3 cells in PBS twice, and harvesting the cells by trypsination. The harvested cells were then pooled in complete medium, washed in PBS twice, and 2×10^6 cells/inoculate were suspended in 0.1 ml of matrigel. This cell suspension was used to inoculate the mice subcutaneously in the flank of each mouse. Mice with developing tumors after two weeks were randomly assigned to experimental groups. Mice were treated intraperitoneally with either vehicle control (control group; 7 animals) or Antisense-1 (7 mg/kg bwt) or scrambled PTO (7 mg/kg bwt) for 7 days. In another arm mice were treated with cisplatin (10 mg/kg, once a week), or scrambled PTO (7 mg/kg, 5 times/week)+ cisplatin (10 mg/kg, IP, once a week) or Antisense-1 (7 mg/kg, IP, once a week)+ Cisplatin (10 mg/kg, IP, once a week). Mice were weighed and tumor size was measured using a digital caliper every 3 days.
# PD-1 = experiment: RT-PCR of PD-1 in donor PBMCs incubated with recombinant HE4; type: cell-based, human; conditions: HE4 5.4 nM, donor PMBCs, within 6 hours
# Description: Ficoll-Paque density gradient centrifugation was used to isolate PBMC from heparinized venous blood. Unfractionated PBMC were suspended in serum free RPMI1640 medium. Then the cells were incubated with recombinant HE4 (5.4 nM) or vehicle for 6 hours. TRIzol reagent was used to isolate the total RNA, and the first strand cDNA was made by SuperScript III reverse transcriptase. RT-PCR for the cDNA was done with PD-1 or GAPDH (internal control) gene specific primers. The primer sequences used for PD-1 are F-[…] (SEQ ID NO:4); R-[…] SEQ ID NO:5). The primer sequences used for internal control (GAPDH) are F-AATCCCATCACCATCTTCC SEQ ID NO:6); R-gTCCTTCCACgATACCAAAg SEQ ID NO:7).
molecule,measurement,setting,value
CC(C)CCC[C@@H](C)C1CC[C@H]2C34C=CC5(C[C@@H](OC(=O)CBr)CC[C@]5(C)[C@H]3CC[C@]12C)n1c(=O)n(C)c(=O)n14 (stereo partly drawn) [MeTC7],PD-L1 expression,PD-L1 [1],a similar effect was not found
same,PD-L1 expression,PD-L1 [2],reduced PD-L1 expression
same,PD-L1 expression,PD-L1 [3],down regulate
same,PD-L1 expression,PD-L1 [4],down regulate
N.N.[Cl][Pt][Cl] [cisplatin],percent change in tumor size,SKOV-3 cells,an increase in tumor size at least initially
"recombinant HE4: exogenous recombinant human epididymis protein 4 added to PBMCs (protein, UniProt Q14508 31-124, looked up) WAP four-disulfide core …: EKTGVCPELQADQNCTQECVSDSECADNLKCCSAGCATFCSLPNDKEGSCPQVNINFPQLGLCRDQCQVDSQCPGQMKCCRNGCGKVSCVTPNF",increase in PD-1 expression (PD-1/GAPDH ratio),PD-1,77.7%
